US9051300B2, “Herbicides” (Syngenta Limited, priority 2009, dated 2015)

tested on: Winter Wheat variety 'Hereward'; experiment: Crop damage to winter wheat, post-emergence spray; format: in vivo; conditions: 250 g/ha, no safener, evaluated after 13 days, 100=total damage to plant, 0=no damage
Method: Seeds of the Winter Wheat variety ‘Hereward’ were sown in standard soil in pots. After 8 days cultivation under controlled conditions in a glasshouse (at 24/16° C., day/night; 14 hours light; 65% humidity), the plants were sprayed post-emergence with an aqueous spray solution derived from the formulation of the technical active ingredient in acetone/water (50:50) solution containing 0.5% Tween 20 (polyoxyethylene sorbitan monolaurate, CAS RN 9005-64-5). The test plants were then grown in a glasshouse under controlled conditions in a glasshouse (at 24/16° C., day/night; 14 hours light; 65% humidity) and watered twice daily. After 13 days for pre and post-emergence, the test was evaluated (100=total damage to plant; 0=no damage to plant).

SMILES | Winter Wheat (Hereward) (damage to plant)
Cc1cc(-c2ccc(Cl)cc2)nn1C1C(=O)C/C(=C\c2ccc(F)cn2)C1=O (stereo not drawn) [Compound A21] | 20

tested on: Lolium perenne (LOLPE); experiment: Post-emergence herbicidal activity, glasshouse pot test; format: in vivo; conditions: 312 h, evaluated after 13 days, 100=total damage to plant, 0=no damage
Method: (§1) Seeds of a variety of test species are sown in standard soil in pots. After cultivation for one day (pre-emergence) or after 8 days cultivation (post-emergence) under controlled conditions in a glasshouse (at 24/16° C., day/night; 14 hours light; 65% humidity), the plants are sprayed with an aqueous spray solution derived from the formulation of the technical active ingredient in acetone/water (50:50) solution containing 0.5% Tween 20 (polyoxyethylene sorbitan monolaurate, CAS RN 9005-64-5). The test plants are then grown in a glasshouse under controlled conditions in a glasshouse (at 24/16° C., day/night; 14 hours light; 65% humidity) and watered twice daily. After 13 days for pre and post-emergence, the test is evaluated (100=total damage to plant; 0=no damage to plant). Lolium perenne (LOLPE), Alopecurus myosuroides (ALOMY), Echinochloa crus-galli (ECHCG), Avena fatua (AVEFA) Post-Emergence Activity

SMILES | pest or weed control at 250 g/ha [%]
Cc1sc(-c2ccc(Cl)cc2)nc1C1C(=O)C/C(=C\c2ccc(F)cn2)C1=O (stereo not drawn) [Compound A13] | 0
Cc1sc(-c2ccc(Cl)cc2)nc1C1C(=O)C/C(=C\c2ccoc2)C1=O (stereo not drawn) [Compound A11] | 0
Cc1cc(-c2ccc(Cl)cc2)nn1C1C(=O)C/C(=C\c2ccc(F)cn2)C1=O (stereo not drawn) [Compound A21] | 60
Cc1sc(-c2ccc(Cl)cc2)cc1C1C(=O)CC(CC2CCOC2)C1=O (stereo not drawn) [Compound A5] | 30
Cc1sc(-c2ccc(Br)cn2)nc1C1C(=O)C/C(=C\C2CCOCC2)C1=O (stereo not drawn) [Compound A4] | 0
Cc1ccc2c(cnn2C)c1C1C(=O)CC(CC2CCOCC2)C1=O (stereo not drawn) [Compound A19] | 0
Cc1sc(-c2ccc(Cl)cc2)cc1C1C(=O)C/C(=C\C2CCOCC2)C1=O (stereo not drawn) [Compound A10] | 10
Cc1sc(COc2ccc(Cl)cc2)nc1C1C(=O)C/C(=C\C2CCOCC2)C1=O (stereo not drawn) [Compound A3] | 0
Cc1sc(COc2ccc(Cl)cc2)nc1C1C(=O)CC(CC2CCOCC2)C1=O (stereo not drawn) [Compound A2] | 10

tested on: Echinochloa crus-galli (ECHCG); experiment: as above; format: in vivo; conditions: 312 h, evaluated after 13 days, 100=total damage to plant, 0=no damage
Method: as §1

SMILES | pest or weed control at 250 g/ha [%]
Cc1sc(-c2ccc(Cl)cc2)nc1C1C(=O)C/C(=C\c2ccc(F)cn2)C1=O (stereo not drawn) [Compound A13] | 20
Cc1sc(-c2ccc(Cl)cc2)nc1C1C(=O)C/C(=C\c2ccoc2)C1=O (stereo not drawn) [Compound A11] | 80
Cc1cc(-c2ccc(Cl)cc2)nn1C1C(=O)C/C(=C\c2ccc(F)cn2)C1=O (stereo not drawn) [Compound A21] | 90
Cc1sc(-c2ccc(Cl)cc2)cc1C1C(=O)CC(CC2CCOC2)C1=O (stereo not drawn) [Compound A5] | 80
Cc1sc(-c2ccc(Br)cn2)nc1C1C(=O)C/C(=C\C2CCOCC2)C1=O (stereo not drawn) [Compound A4] | 70
Cc1ccc2c(cnn2C)c1C1C(=O)CC(CC2CCOCC2)C1=O (stereo not drawn) [Compound A19] | 40
Cc1sc(-c2ccc(Cl)cc2)cc1C1C(=O)C/C(=C\C2CCOCC2)C1=O (stereo not drawn) [Compound A10] | 70
Cc1sc(COc2ccc(Cl)cc2)nc1C1C(=O)C/C(=C\C2CCOCC2)C1=O (stereo not drawn) [Compound A3] | 20
Cc1sc(COc2ccc(Cl)cc2)nc1C1C(=O)CC(CC2CCOCC2)C1=O (stereo not drawn) [Compound A2] | 20

tested on: Avena fatua (AVEFA); experiment: as above; format: in vivo; conditions: 312 h, evaluated after 13 days, 100=total damage to plant, 0=no damage
Method: as §1

SMILES | pest or weed control at 250 g/ha [%]
Cc1sc(-c2ccc(Cl)cc2)nc1C1C(=O)C/C(=C\c2ccc(F)cn2)C1=O (stereo not drawn) [Compound A13] | 10
Cc1sc(-c2ccc(Cl)cc2)nc1C1C(=O)C/C(=C\c2ccoc2)C1=O (stereo not drawn) [Compound A11] | 0
Cc1cc(-c2ccc(Cl)cc2)nn1C1C(=O)C/C(=C\c2ccc(F)cn2)C1=O (stereo not drawn) [Compound A21] | 30
Cc1sc(-c2ccc(Cl)cc2)cc1C1C(=O)CC(CC2CCOC2)C1=O (stereo not drawn) [Compound A5] | 50
Cc1sc(-c2ccc(Br)cn2)nc1C1C(=O)C/C(=C\C2CCOCC2)C1=O (stereo not drawn) [Compound A4] | 0
Cc1ccc2c(cnn2C)c1C1C(=O)CC(CC2CCOCC2)C1=O (stereo not drawn) [Compound A19] | 10
Cc1sc(-c2ccc(Cl)cc2)cc1C1C(=O)C/C(=C\C2CCOCC2)C1=O (stereo not drawn) [Compound A10] | 0
Cc1sc(COc2ccc(Cl)cc2)nc1C1C(=O)C/C(=C\C2CCOCC2)C1=O (stereo not drawn) [Compound A3] | 0
Cc1sc(COc2ccc(Cl)cc2)nc1C1C(=O)CC(CC2CCOCC2)C1=O (stereo not drawn) [Compound A2] | 0

tested on: Alopecurus myosuroides (ALOMY); experiment: as above; format: in vivo; conditions: 312 h, evaluated after 13 days, 100=total damage to plant, 0=no damage
Method: as §1

SMILES | pest or weed control at 250 g/ha [%]
Cc1sc(-c2ccc(Cl)cc2)nc1C1C(=O)C/C(=C\c2ccc(F)cn2)C1=O (stereo not drawn) [Compound A13] | 10
Cc1sc(-c2ccc(Cl)cc2)nc1C1C(=O)C/C(=C\c2ccoc2)C1=O (stereo not drawn) [Compound A11] | 10
Cc1cc(-c2ccc(Cl)cc2)nn1C1C(=O)C/C(=C\c2ccc(F)cn2)C1=O (stereo not drawn) [Compound A21] | 70
Cc1sc(-c2ccc(Cl)cc2)cc1C1C(=O)CC(CC2CCOC2)C1=O (stereo not drawn) [Compound A5] | 50
Cc1sc(-c2ccc(Br)cn2)nc1C1C(=O)C/C(=C\C2CCOCC2)C1=O (stereo not drawn) [Compound A4] | 20
Cc1ccc2c(cnn2C)c1C1C(=O)CC(CC2CCOCC2)C1=O (stereo not drawn) [Compound A19] | 20
Cc1sc(-c2ccc(Cl)cc2)cc1C1C(=O)C/C(=C\C2CCOCC2)C1=O (stereo not drawn) [Compound A10] | 20
Cc1sc(COc2ccc(Cl)cc2)nc1C1C(=O)C/C(=C\C2CCOCC2)C1=O (stereo not drawn) [Compound A3] | 10
Cc1sc(COc2ccc(Cl)cc2)nc1C1C(=O)CC(CC2CCOCC2)C1=O (stereo not drawn) [Compound A2] | 10

tested on: Winter Wheat variety 'Hereward'; experiment: Crop damage to winter wheat seed treated with safener cloquintocet mexyl, post-emergence spray; format: in vivo; conditions: 250 g/ha, seed treated with cloquintocet mexyl 0.5 g/kg seed, evaluated after 13 days, 100=total damage, 0=no damage
Method: Seeds of the Winter Wheat variety ‘Hereward’ were seed treated with a wettable powder formulation of the cereal herbicide safener, cloquintocet mexyl, at a rate of 0.5 grams per kilogram of dry seed prior to the initiation of glasshouse testing. One seed was sown per 1.5 inch plastic pot into a sandy loam soil at a depth of 1 cm, 8 days prior to application of the test compounds and was watered and grown under controlled conditions in a glasshouse (at 24/16° C., day/night; 14 hours light; 65% humidity). The plants were sprayed post-emergence with an aqueous spray solution derived from the formulation of the technical active ingredient in acetone/water (50:50) solution containing 0.5% Tween 20 (polyoxyethylene sorbitan monolaurate, CAS RN 9005-64-5). The test plants were then grown in a glasshouse under controlled conditions in a glasshouse (at 24/16° C., day/night; 14 hours light; 65% humidity) and watered twice daily. After 13 days for pre and post-emergence, the test was evaluated (100=total damage to plant; 0=no damage to plant).

SMILES | Winter Wheat (Hereward) + cloquintocet mexyl (damage to plant)
Cc1cc(-c2ccc(Cl)cc2)nn1C1C(=O)C/C(=C\c2ccc(F)cn2)C1=O (stereo not drawn) [Compound A21] | 10

tested on: Lolium perenne (LOLPE); experiment: Pre-emergence herbicidal activity, glasshouse pot test; format: in vivo; conditions: rate not printed (columns shifted), evaluated after 13 days, 100=total damage to plant, 0=no damage
Method: as §1, with “Pre-Emergence” for “Post-Emergence”

SMILES | Pre-Emergence Activity LOLPE (damage to plant)
Cc1cc(-c2ccc(Cl)cc2)nn1C1C(=O)C/C(=C\c2ccc(F)cn2)C1=O (stereo not drawn) [Compound A21] | 90

tested on: Echinochloa crus-galli (ECHCG); experiment: as above; format: in vivo; conditions: rate not printed (columns shifted), evaluated after 13 days, 100=total damage to plant, 0=no damage
Method: as §1, with “Pre-Emergence” for “Post-Emergence”

SMILES | Pre-Emergence Activity ECHCG (damage to plant)
Cc1cc(-c2ccc(Cl)cc2)nn1C1C(=O)C/C(=C\c2ccc(F)cn2)C1=O (stereo not drawn) [Compound A21] | 90

tested on: Avena fatua (AVEFA); experiment: as above; format: in vivo; conditions: rate not printed (columns shifted), evaluated after 13 days, 100=total damage to plant, 0=no damage
Method: as §1, with “Pre-Emergence” for “Post-Emergence”

SMILES | Pre-Emergence Activity AVEFA (damage to plant)
Cc1cc(-c2ccc(Cl)cc2)nn1C1C(=O)C/C(=C\c2ccc(F)cn2)C1=O (stereo not drawn) [Compound A21] | 10

tested on: Alopecurus myosuroides (ALOMY); experiment: as above; format: in vivo; conditions: rate not printed (columns shifted), evaluated after 13 days, 100=total damage to plant, 0=no damage
Method: as §1, with “Pre-Emergence” for “Post-Emergence”

SMILES | Pre-Emergence Activity ALOMY (damage to plant)
Cc1cc(-c2ccc(Cl)cc2)nn1C1C(=O)C/C(=C\c2ccc(F)cn2)C1=O (stereo not drawn) [Compound A21] | 40
